Structures can show the parent of a compound that is named as a salt.
Columns and labels:
serotonin 1A receptor = molecular target: T1, serotonin 1A receptor (Rattus norvegicus, UniProt P19327); experiment: Binding test on [3H] 8-hydroxy-dipropylaminotetralin, hippocampus receptor fraction; parameters: species or system SD rats; details: rat hippocampus receptor fraction, 0.5 nM [3H] 8-OH-DPAT, room temperature 30 min; read-out: 5HT1
T1 construct: To the receptor fraction of the hippocampus were added a test compound and 0.5 nM of [^3H]; 8-hydroxy-dipropylaminotetralin; from tissue; host or cells: rat hippocampus membrane fraction
T1 sequence (P19327 1-422): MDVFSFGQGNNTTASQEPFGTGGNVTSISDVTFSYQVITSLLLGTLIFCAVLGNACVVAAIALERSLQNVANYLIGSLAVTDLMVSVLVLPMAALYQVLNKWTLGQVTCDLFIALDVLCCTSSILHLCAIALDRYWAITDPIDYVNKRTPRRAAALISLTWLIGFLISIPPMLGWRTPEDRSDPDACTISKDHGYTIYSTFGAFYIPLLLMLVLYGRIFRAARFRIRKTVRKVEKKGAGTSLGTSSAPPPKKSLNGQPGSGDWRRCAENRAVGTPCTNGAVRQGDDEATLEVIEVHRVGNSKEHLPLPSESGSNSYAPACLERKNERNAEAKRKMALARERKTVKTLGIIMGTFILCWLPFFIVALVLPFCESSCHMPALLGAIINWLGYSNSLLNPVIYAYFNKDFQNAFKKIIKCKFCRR

serotonin 2 receptor = molecular target: T2, serotonin 2 receptor (Rattus norvegicus, UniProt P14842); experiment: Binding test on [3H] ketanserin, cerebral cortex receptor fraction; parameters: species or system SD rats; details: 0.3 nM [3H] ketanserin, 37° C. 15 min, read-out: 5HT2
T2 construct: To the receptor fraction of the cerebral cortex were added a test compound and 0.3 nM of [^3H] ketanserin; from tissue; host or cells: rat cerebral cortex membrane fraction
T2 sequence (P14842 whole entry): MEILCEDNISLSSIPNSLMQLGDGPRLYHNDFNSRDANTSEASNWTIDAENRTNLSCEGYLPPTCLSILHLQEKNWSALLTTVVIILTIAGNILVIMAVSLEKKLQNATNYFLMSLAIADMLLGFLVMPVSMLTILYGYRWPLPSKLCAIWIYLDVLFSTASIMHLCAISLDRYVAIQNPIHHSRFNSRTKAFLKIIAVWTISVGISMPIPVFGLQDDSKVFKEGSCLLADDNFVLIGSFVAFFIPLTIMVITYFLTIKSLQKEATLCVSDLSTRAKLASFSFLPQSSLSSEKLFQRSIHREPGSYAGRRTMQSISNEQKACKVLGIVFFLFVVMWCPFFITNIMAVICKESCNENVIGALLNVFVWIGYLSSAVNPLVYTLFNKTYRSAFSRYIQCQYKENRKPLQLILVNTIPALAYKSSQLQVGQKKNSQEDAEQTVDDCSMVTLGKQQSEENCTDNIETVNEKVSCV

Compound | Ki (serotonin 1A receptor) [nM] | Ki (serotonin 2 receptor) [nM]
CCN1CCN(c2nc(-c3ccc(CCCO)cc3)cc3cccnc23)CC1 [Example 247, 8-(1-ethylpiperazin-4-yl)-6-[4-(3-hydroxypropyl)phenyl]-1,7-naphthyridine Dihydrochloride] | 25.1 | 28.7
CCN1CCN(c2nc(-c3ccc(CCC(C)O)cc3)cc3cccnc23)CC1 (stereo not drawn) [Example 248, 8-(1-ethylpiperazin-4-yl)-6-[4-(3-hydroxybutyl)phenyl]-1,7-naphthyridine Dihydrochloride] | 43 | 31.6
CCN1CCN(c2nc(-c3ccc(C(F)CCO)cc3)cc3cccnc23)CC1 (stereo not drawn) [Example 249, 8-(1-ethylpiperazin-4-yl)-6-[4-(3-hydroxy-1-fluoropropyl)phenyl]-1,7-naphthyridine Dihydrochloride] | 38 | 28.1
CN1CCN(c2nc(-c3ccc(OCCO)cc3)cc3ccsc23)CC1 [Example 253, 5-[4-(2-hydroxyethoxy)phenyl]-7-(4-methylpiperazin-1-yl)thieno[2,3-c]pyridine Hydrochloride] | 75.4 | 5.98
CCN1CCN(c2nc(-c3ccc(CCCO)c(Cl)c3)cc3ccsc23)CC1 [Example 257, 5-[4-(3-hydroxypropyl)-3-chlorophenyl]-7-(4-ethylpiperazin-1-yl)thieno[2,3-c]pyridine Oxalate] | 12.6 | 23.2
CCN1CCN(c2nc(-c3ccc(OCC(C)(C)O)cc3)cc3ccsc23)CC1 [Example 260, 7-(1-Ethylpiperazin-4-yl)-5-[4-(2-hydroxy-2-methylpropoxy)phenyl]thieno[2,3-c]pyridine dihydrochloride] | 67.8 | 0.54
CCN1CCN(c2nc(-c3ccc(CCCO)c(C#N)c3)cc3ccsc23)CC1 [Example 262, 5-[4-(3-hydroxypropyl)-3-cyanophenyl]-7-(4-ethylpiperazin-1-yl)thieno[2,3-c]pyridine Oxalate] | 9.04 | 0.25
CCN1CCN(c2nc(-c3ccc(N4CCOCC4)nc3)cc3ccsc23)CC1 [Example 263, 5-[2-(4-morpholinyl)pyridin-5-yl]-7-(4-ethylpiperazin-1-yl)thieno[2,3-c]pyridine Hydrochloride] | 6.42 | 0.89
CCN1CCN(c2nc(-c3ccc(N4CCC(O)CC4)nc3)cc3ccsc23)CC1 [Example 265, 5-[2-(4-hydroxypiperidin-1-yl)pyridin-5-yl]-7-(4-ethylpiperazin-1-yl)thieno[2,3-c]pyridine Hydrochloride] | 9.73 | 114
CCN1CCN(c2nc(-c3ccc(C4=CCOCC4)cc3)cc3ccsc23)CC1 [Example 266, 5-[4-(5,6-dihydro-2H-pyran-4-yl)phenyl]-7-(4-ethylpiperazin-1-yl)thieno[2,3-c]pyridine Hydrochloride] | 97.3 | 13.8
CCN1CCN(c2nc(-c3ccc(OC(C)COC)nc3)cc3ccsc23)CC1 (stereo not drawn) [Example 267, 5-[2-(2-methoxyethoxy-2-methyl)pyridin-5-yl]-7-(4-ethylpiperazin-1-yl)thieno[2,3-c]pyridine Hydrochloride] | 10.4 | 68.7
CCN1CCN(c2nc(-c3ccc(OCCO)nc3)cc3ccsc23)CC1 [Example 268, 5-[2-(2-hydroxyethoxy)pyridin-5-yl]-7-(4-ethylpiperazin-1-yl)thieno[2,3-c]pyridine Oxalate] | 16.5 | 86
CCN1CCN(c2nc(-c3ccc(OCCOC)nc3)cc3ccsc23)CC1 [Example 269, 5-[2-(2-methoxyethoxy)pyridin-5-yl]-7-(4-ethylpiperazin-1-yl)-thieno[2,3-c]pyridine hydrochloride] | 15.5 | 58.4
CCN1CCN(c2nc(-c3ccc(C4=CCC(O)CC4)cc3)cc3ccsc23)CC1 (stereo not drawn) [Example 270, 5-[4-(4-hydroxycyclohexen-1-yl)phenyl]-7-(4-ethylpiperazin-1-yl)thieno[2,3-c]pyridine hydrochloride] | 43 | 30.3
CCN1CCN(c2nc(-c3ccc(C(=O)CC(C)C)cc3)cc3ccsc23)CC1 [Example 272, 7-(1-ethylpiperazin-4-yl)-5-[4-(3-methylbutanoyl)phenyl]thieno[2,3-c]pyridine dihydrochloride] | 160 | 22.4
CN1CCN(c2nc(-c3ccc(OCCO)cc3)cc3sccc23)CC1 [Example 279, 4-(4-methylpiperazin-1-yl)-6-[4-(2-hydroxyethoxy)phenyl]thieno[3,2-c]pyridine hydrochloride] | 76.4 | 1.44
CCCC(O)c1ccc(-c2cc3sccc3c(N3CCN(CC)CC3)n2)cc1 (stereo not drawn) [Example 283, 4-(4-ethylpiperazin-1-yl)-6-[4-1-hydroxybutyl)phenyl]thieno[3,2-c]pyridine oxalate] | 5.71 | 6.43
CCN1CCN(c2nc(-c3cccc(OCCO)c3)cc3sccc23)CC1 [Example 284, 4-(1-ethylpiperazin-4-yl)-6-[3-(2-hydroxyethoxy)phenyl]thieno-[3,2-c]pyridine dihydrochloride] | 91.9 | 75.9
CCN1CCN(c2nc(-c3ccc(OCC(C)O)cc3)cc3sccc23)CC1 (stereo not drawn) [Example 287, 4-(4-ethylpiperazin-1-yl)-6-[4-(2-hydroxypropoxy)phenyl]thieno[3,2-c]pyridine] | 27.9 | 0.87

Continued by falling Ki (serotonin 1A receptor), values first:

Ki (serotonin 1A receptor) [nM] | Ki (serotonin 2 receptor) [nM] | Compound
160 | 0.45 | COc1ccc(-c2cc3ccsc3c(N3CCN(CCO)CC3)n2)cc1 [Example 276, 5-(4-methoxyphenyl)-7-[4-(2-hydroxyethyl)piperazin-1-yl]thieno[2,3-c]pyridine hydrochloride]
123 | 7.67 | CCN1CCN(c2nc(-c3ccc(OCC(C)(C)O)cc3)cc3cccnc23)CC1 [Example 250, 8-(1-ethylpiperazin-4-yl)-6-[4-(2-hydroxy-2-methylpropoxy)phenyl]-1,7-naphthyridine Dihydrochloride]
109 | 72.2 | CCN1CCN(c2nc(-c3ccc(OCCO)cc3)cc3cccnc23)CC1 [Example 245, 8-(1-ethylpiperazin-4-yl)-6-[4-(2-hydroxyethoxy)phenyl]-1,7-naphthyridine Dihydrochloride]
75.4 | 40 | CCN1CCN(c2nc(-c3ccc(C(O)CC(C)C)cc3)cc3ccsc23)CC1 (stereo not drawn) [Example 255, 7-(1-ethylpiperazin-4-yl)-5-[4-(1-hydroxy-3-methylbutyl)phenyl]thieno[2,3-c]pyridine Dihydrochloride]
71.4 | 52.1 | CCN1CCN(c2nc(-c3ccc(OC)cc3)cc3cscc23)CC1 [Example 277, 4-(4-ethylpiperazin-1-yl)-6-(4-methoxyphenyl)thieno[3,4-c]pyridine oxalate]
61.3 | 3.34 | CCN1CCN(c2nc(-c3ccc(N4CCSCC4)nc3)cc3ccsc23)CC1 [Example 264, 5-[2-(4-thiomorpholinyl)pyridin-5-yl]-7-(4-ethylpiperazine-1-yl)thieno[2,3-c]pyridine Hydrochloride]
59.7 | 29.2 | CCCCC(O)c1ccc(-c2cc3ccsc3c(N3CCN(CC)CC3)n2)cc1 (stereo not drawn) [Example 254, 7-(1-ethylpiperazin-4-yl)-5-[4-(1-hydroxypentyl)phenyl]thieno[2,3-c]pyridine Dihydrochloride]
53.7 | 0.06 | CCN1CCN(c2nc(-c3ccc(OC)c(CCCO)c3)cc3ccsc23)CC1 [Example 261, 5-[3-(3-hydroxypropyl)-4-methoxyphenyl]-7-(4-ethylpiperazin-1-yl)thieno[2,3-c]pyridine Oxalate]
51.4 | 9.11 | CCN1CCN(c2nc(-c3ccc(C(=O)NC4CCCCC4)cc3)cc3ccsc23)CC1 [Example 273, dihydrochloride]
41.3 | 4.61 | CCN1CCN(c2nc(-c3ccc(OCCO)cc3)cc3cscc23)CC1 [Example 278, 4-(4-ethylpiperazin-1-yl)-6-[4-(2-hydroxyethoxy)phenyl]thieno-[3,4-c]pyridine oxalate]
24.7 | 35.1 | CCN1CCN(c2nc(-c3cccc(OCCO)c3)cc3ccsc23)CC1 [Example 258, 7-(1-ethylpiperazin-4-yl)-5-[3-(2-hydroxyethoxy)phenyl]thieno[2,3-c]pyridine Dihydrochloride]
22.2 | 1.96 | CCN1CCN(c2nc(-c3ccc(CCC(C)O)cc3)cc3sccc23)CC1 (stereo not drawn) [Example 285, 4-(1-ethylpiperazin-4-yl)-6-[4-(3-hydroxybutyl)phenyl]thieno[3,2-c]pyridine hydrochloride]
10.8 | 6.46 | CCC(O)c1ccc(-c2cc3sccc3c(N3CCN(CC)CC3)n2)cc1 (stereo not drawn) [Example 282, 4-(4-ethylpiperazin-1-yl)-6-[4-(1-hydroxypropyl)phenyl]thieno-[3,2-c]pyridine oxalate]
9.22 | 19.5 | CCN1CCN(c2nc(-c3ccc(C(F)CCO)cc3)cc3ccsc23)CC1 (stereo not drawn) [Example 256, 7-(1-ethylpiperazin-4-yl)-5-[4-(3-hydroxy-1-fluoropropyl)phenyl]thieno[2,3-c]pyridine Dihydrochloride]
